Measured values reported in patent US10717799B2, “Copolymers as excipients for effective solubilization of poorly water-soluble substances from solid mixtures” (Dow Global Technologies LLC, priority 2015, dated 2020).
In brackets after ≈: the same amount, converted by molar mass.

Assays:
[1] = Supersaturation (maintenance) test with Nilutamide; conditions: phosphate buffer saline with 0.5 wt. % FaSSIF, 37 °C, pH 6.5, aqueous with cosolvent or surfactant or cyclodextrin, kinetic from dmso stock
[2] = physchem; conditions: 37 °C, pH 6.5, aqueous with cosolvent or surfactant or cyclodextrin, kinetic from dmso stock
[3] = physchem; conditions: 37 °C, pH 6.5, fassif, thermodynamic from solid
[4] = pH 6.5
[5] = pH 6.5; remark: listed apart in the source
[6] = pH 6.5; remark: listed apart in the source

Compound | c(30 min) concentration of solubilized Phenytoin [4] | c(90 min) concentration of solubilized Phenytoin [4] | c(180 min) concentration of solubilized Phenytoin [4] | also measured
CC1(C)NC(=O)N(c2ccc([N+](=O)[O-])c(C(F)(F)F)c2)C1=O [Nilutamide] | – | – | – | solubility at 30 min [1]: 473 µg/mL (≈ 1490 µM); solubility at 90 min [1]: 364 µg/mL (≈ 1150 µM); solubility at 180 min [1]: 308 µg/mL (≈ 971 µM)
O=C1NC(=O)C(c2ccccc2)(c2ccccc2)N1 [Phenytoin] | – | – | – | solubility at 30 min [2]: 75 µg/mL (≈ 297 µM); solubility at 90 min [2]: 70 µg/mL (≈ 277 µM); solubility at 180 min [2]: 73 µg/mL (≈ 289 µM); solubility at 4 min [3]: ~50 µg/mL (≈ 198 µM)
poly-[(N-isopropylacrylamide)-co-(N,N-dimethylacrylamide)] [Example 1-1] | 1,208 mg/L | 1,024 mg/L | 1,104 mg/L | –
poly-[(N-isopropylacrylamide)-co-(N,N-dimethylacrylamide)] [Example 1-3] | 992 mg/L | 794 mg/L | 876 mg/L | –
poly-[(N-isopropylacrylamide)-co-(N,N-dimethylacrylamide)] [Example 1-4] | 1,066 mg/L | 758 mg/L | 936 mg/L | –
poly-[(N-isopropylacrylamide)-co-(N,N-dimethylacrylamide)] [Example 1-5] | 942 mg/L | 759 mg/L | 823 mg/L | –
poly-[(N-isopropylacrylamide)-co-(N,N-dimethylacrylamide)] [Example 1-6] | 962 mg/L | 649 mg/L | 875 mg/L | –
poly-[(N-isopropylacrylamide)-co-(N,N-dimethylacrylamide)] [Example 1-7] | 156 mg/L | 137 mg/L | 145 mg/L | –
poly-[(N-isopropylacrylamide)-co-(N,N-dimethylacrylamide)] [Example 1-8] | 183 mg/L | 173 mg/L | 184 mg/L | –
poly-[(N-isopropylacrylamide)-co-(N,N-dimethylacrylamide)] [Example 1-9] | 301 mg/L | 266 mg/L | 265 mg/L | –
poly-[(N-isopropylacrylamide)-co-(N,N-dimethylacrylamide)] [Example 1-10] | 392 mg/L | 281 mg/L | 255 mg/L | –
poly-[(N-isopropylacrylamide)-co-(N,N-dimethylacrylamide)] [Example 1-11] | 895 mg/L | 343 mg/L | 300 mg/L | –
poly-[(N-isopropylacrylamide)-co-(N,N-dimethylacrylamide)] [Example 1-15] | 479 mg/L | 455 mg/L | 409 mg/L | c(30 min) concentration of solubilized Nilutamide [5]: 828 mg/L; c(90 min) concentration of solubilized Nilutamide [5]: 833 mg/L; c(180 min) concentration of solubilized Nilutamide [5]: 848 mg/L
poly-[(N-isopropylacrylamide)-co-(N,N-dimethylacrylamide)] [Example 1-16] | 413 mg/L | 379 mg/L | 407 mg/L | –
poly-[(N-isopropylacrylamide)-co-(N,N-dimethylacrylamide)] [Example 1-17] | – | – | – | solubilized drug concentration after continuous decrease [6]: below 200 mg/L

Now from value to compound, other results behind:

c(30 min) concentration of solubilized Phenytoin [4] | c(90 min) concentration of solubilized Phenytoin [4] | c(180 min) concentration of solubilized Phenytoin [4] | Compound | also measured
172 mg/L | 197 mg/L | 137 mg/L | poly-[(N,N-diethylacrylamide)-co-(N,N-dimethylacrylamide)] [Example 5-1] | –
319 mg/L | 322 mg/L | 223 mg/L | poly-[(N,N-diethylacrylamide)-co-(N,N-dimethylacrylamide)] [Example 5-2] | –
595 mg/L | 413 mg/L | 257 mg/L | poly-[(N,N-diethylacrylamide)-co-(N,N-dimethylacrylamide)] [Example 5-3] | –
646 mg/L | 667 mg/L | 591 mg/L | poly-[(N,N-diethylacrylamide)-co-(N,N-dimethylacrylamide)] [Example 5-4] | –
348 mg/L | 359 mg/L | 295 mg/L | poly-[(N,N-diethylacrylamide)-co-(N,N-dimethylacrylamide)] [Example 5-5] | –
